Results from patent publication US20210045385A1, “PYRIDAZINONE-SUBSTITUTED KETOXIMES AS HERBICIDES” (FMC Corporation, priority 2018, published 2021).

Assays:
Assay type in all cases: in vivo
[1] = system: blackgrass (Alopecurus myosuroides); assay: Test A postemergence, visual plant response rating; details: for Blackgrass plant response rating (0 to 100 scale): 500 g ai/ha, postemergence, 0 is no effect, 100 is complete control; for Blackgrass plant response rating: Postemergence, 125 g ai/ha, 0 to 100 scale (0 no effect, 100 complete control)
Method in brief: (§1)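 Preemergence: seeds in loam/sand blend given directed soil spray of compound in non-phytotoxic solvent with surfactant. Postemergence: plants 2–10 cm, one- to two-leaf stage, sprayed with same formulation. Visual injury rated vs untreated controls after ~10 days in greenhouse, 0 (no effect) to 100 (complete control).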

[2] = system: galium (catchweed bedstraw, Galium aparine); assay: Test A postemergence, visual plant response rating; details: for Galium plant response rating (0 to 100 scale): 500 g ai/ha, postemergence, 0 is no effect, 100 is complete control; for Galium plant response rating: Postemergence, 125 g ai/ha, 0 to 100 scale (0 no effect, 100 complete control)
Method in brief: as §1

[3] = system: wheat (Triticum aestivum); assay: Test A postemergence, visual plant response rating; details: for Wheat plant response rating: 0 to 100 scale (0 no effect, 100 complete control)
Method in brief: as §1

corn (Zea mays) = assay: Test A postemergence, visual plant response rating; details: for Corn plant response rating (0 to 100 scale): 500 g ai/ha, postemergence, 0 is no effect, 100 is complete control; for Corn plant response rating: Postemergence, 125 g ai/ha, 0 to 100 scale (0 no effect, 100 complete control)
Method in brief: as §1

[4] = system: barnyardgrass (Echinochloa crus-galli); assay: Test A postemergence, visual plant response rating; details: for Barnyardgrass plant response rating (0 to 100 scale): 500 g ai/ha, postemergence, 0 is no effect, 100 is complete control; for Barnyardgrass plant response rating: Postemergence, 125 g ai/ha, 0 to 100 scale (0 no effect, 100 complete control)
Method in brief: as §1

[5] = system: ragweed (common ragweed, Ambrosia elatior); assay: Test A postemergence, visual plant response rating; details: for Ragweed plant response rating (0 to 100 scale): 500 g ai/ha, postemergence, 0 is no effect, 100 is complete control; for Ragweed plant response rating: Postemergence, 125 g ai/ha, 0 to 100 scale (0 no effect, 100 complete control)
Method in brief: as §1

[6] = system: pigweed (Amaranthus retroflexus); assay: Test A postemergence, visual plant response rating; details: for Pigweed plant response rating (0 to 100 scale): 500 g ai/ha, postemergence, 0 is no effect, 100 is complete control; for Pigweed plant response rating: Postemergence, 125 g ai/ha, 0 to 100 scale (0 no effect, 100 complete control)
Method in brief: as §1

kochia (Kochia scoparia) [7] = assay: Test A postemergence, visual plant response rating; details: for Kochia plant response rating (0 to 100 scale): 500 g ai/ha, postemergence, 0 is no effect, 100 is complete control; for Kochia plant response rating: Postemergence, 125 g ai/ha, 0 to 100 scale (0 no effect, 100 complete control)
Method in brief: as §1

[8] = system: Italian ryegrass (Lolium multiflorum); assay: Test A postemergence, visual plant response rating; details: for Ryegrass, Italian plant response rating: 125 g ai/ha, 0 to 100 scale (0 no effect, 100 complete control)
Method in brief: as §1

[9] = system: foxtail, green (green foxtail, Setaria viridis); assay: Test A postemergence, visual plant response rating; details: for Foxtail, Green plant response rating (0 to 100 scale): 500 g ai/ha, postemergence, 0 is no effect, 100 is complete control; for Foxtail, Green plant response rating: Postemergence, 125 g ai/ha, 0 to 100 scale (0 no effect, 100 complete control)
Method in brief: as §1

[10] = system: barnyardgrass (Echinochloa crus-galli); assay: Test A preemergence, visual plant response rating; details: for Barnyardgrass plant response rating (0 to 100 scale): approx. 10 days
Method in brief: as §1

[11] = system: ragweed (common ragweed, Ambrosia elatior); assay: Test A preemergence, visual plant response rating; details: for Ragweed plant response rating (0 to 100 scale): approx. 10 days
Method in brief: as §1

[12] = system: pigweed (Amaranthus retroflexus); assay: Test A preemergence, visual plant response rating; details: for Pigweed plant response rating (0 to 100 scale): approx. 10 days
Method in brief: as §1

kochia (Kochia scoparia) [13] = assay: Test A preemergence, visual plant response rating; details: for Kochia plant response rating (0 to 100 scale): approx. 10 days
Method in brief: as §1

[14] = system: Italian ryegrass (Lolium multiflorum); assay: Test A preemergence, visual plant response rating; details: for Ryegrass, Italian plant response rating (0 to 100 scale): approx. 10 days
Method in brief: as §1

[15] = system: foxtail, green (green foxtail, Setaria viridis); assay: Test A preemergence, visual plant response rating; details: for Foxtail, Green plant response rating (0 to 100 scale): approx. 10 days
Method in brief: as §1

[16] = system: sedge, umbrella (small-flower umbrella sedge, Cyperus difformis); assay: Test B flooded paddy test, visual plant response rating; details: 250 g ai/ha, Flood, applied to paddy water, 2-leaf stage, evaluated after 13 to 15 days
Method in brief: (§2)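 Flooded-pot treatment: water 3 cm over the soil, chemical delivered into that water, depth unchanged for the duration. Assessed by eye versus controls following 13–15 greenhouse days; plants were at 2 leaves when dosed.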

[17] = system: barnyardgrass (Echinochloa crus-galli); assay: as above; details: 250 g ai/ha, Flood, applied to paddy water, 2-leaf stage, evaluated after 13 to 15 days
Method in brief: as §2

[18] = system: ducksalad (Heteranhera limosa); assay: as above; details: 250 g ai/ha, Flood, applied to paddy water, 2-leaf stage, evaluated after 13 to 15 days
Method in brief: as §2

rice (Oryza sativa) = assay: as above; details: 250 g ai/ha, Flood, applied to paddy water, 2-leaf stage, evaluated after 13 to 15 days
Method in brief: as §2

[19] = 500 g ai/ha, postemergence, 0 is no effect, 100 is complete control
[20] = 125 g ai/ha, preemergence, 0 to 100 scale, 0 no effect, 100 complete control

Structure (SMILES)	Blackgrass plant response rating (0 to 100 scale) [1]	Blackgrass plant response rating [1]	Galium plant response rating (0 to 100 scale) [2]	Galium plant response rating [2]	Corn plant response rating (0 to 100 scale) (corn (Zea mays))	Corn plant response rating (corn (Zea mays))	Barnyardgrass plant response rating (0 to 100 scale) [4]	Barnyardgrass plant response rating [4]	Ragweed plant response rating (0 to 100 scale) [5]	Ragweed plant response rating [5]	Pigweed plant response rating (0 to 100 scale) [6]	Pigweed plant response rating [6]	Kochia plant response rating (0 to 100 scale) (kochia (Kochia scoparia) [7])	Kochia plant response rating (kochia (Kochia scoparia) [7])	Ryegrass, Italian plant response rating (0 to 100 scale) [8, 19]	Foxtail, Green plant response rating (0 to 100 scale) [9]	Foxtail, Green plant response rating [9]	Barnyardgrass plant response rating (0 to 100 scale) ([10]; 500 g ai/ha Preemergence)	Ragweed plant response rating (0 to 100 scale) ([11]; 500 g ai/ha Preemergence)	Pigweed plant response rating (0 to 100 scale) ([12]; 500 g ai/ha Preemergence)	further results
CCn1nc(C)c(O)c(C(=NOC)c2cccc(Cl)c2)c1=O (mixture of isomers) [Compound 2]	20	0	30	10	0	0	30	0	20	10	10	0	20	10	80	20	0	50	0	0	Wheat plant response rating (0 to 100 scale) [3, 19]: 10; Wheat plant response rating ([3]; Postemergence, 125 g ai/ha): 10; Ryegrass, Italian plant response rating ([8]; Postemergence): 20; Barnyardgrass plant response rating (0 to 100 scale) ([10]; 125 g ai/ha Preemergence): 0; Ragweed plant response rating (0 to 100 scale) ([11]; 125 g ai/ha Preemergence): 0; Pigweed plant response rating (0 to 100 scale) ([12]; 125 g ai/ha Preemergence): 0; Kochia plant response rating (0 to 100 scale) (kochia (Kochia scoparia) [13]; 125 g ai/ha Preemergence): 0; Kochia plant response rating (0 to 100 scale) (kochia (Kochia scoparia) [13]; 500 g ai/ha Preemergence): 0; Ryegrass, Italian plant response rating (0 to 100 scale) ([14]; 125 g ai/ha Preemergence): 20; Ryegrass, Italian plant response rating (0 to 100 scale) ([14]; 500 g ai/ha Preemergence): 60; Foxtail, Green plant response rating (0 to 100 scale) ([15]; 125 g ai/ha Preemergence): 0; Foxtail, Green plant response rating (0 to 100 scale) ([15]; 500 g ai/ha Preemergence): 50; Plant response rating, Sedge, Umbrella (0 to 100 scale, 0 is no effect, 100 is complete control) [16]: 0; Plant response rating, Barnyardgrass (0 to 100 scale, 0 is no effect, 100 is complete control) [17]: 0; Plant response rating, Ducksalad (0 to 100 scale, 0 is no effect, 100 is complete control) [18]: 0; Plant response rating, Rice (0 to 100 scale, 0 is no effect, 100 is complete control) (rice (Oryza sativa)): 0
CON=C(c1cccc(Cl)c1)c1c(O)c(C)n[nH]c1=O (mixture of isomers) [Compound 143]	40	10	0	0	20	0	40	10	0	0	20	0	20	0	60	40	20	30	0	0	Wheat plant response rating ([3]; Postemergence, 500 g ai/ha): 20; Wheat plant response rating (0 to 100 scale) ([3]; Postemergence, approx. 10 days): 0; Ryegrass, Italian plant response rating (0 to 100 scale) ([8]; Postemergence, rate not given, approx. 10 days): 20; Barnyardgrass plant response rating [10, 20]: 0; Ragweed plant response rating [11, 20]: 0; Pigweed plant response rating [12, 20]: 0; Kochia plant response rating (kochia (Kochia scoparia) [13]; [20]): 0; Kochia plant response rating (0 to 100 scale) (kochia (Kochia scoparia) [13]; 500 g ai/ha Preemergence): 10; Ryegrass, Italian plant response rating [14, 20]: 20; Ryegrass, Italian plant response rating (0 to 100 scale) ([14]; 500 g ai/ha Preemergence): 50; Foxtail, Green plant response rating [15, 20]: 30; Foxtail, Green plant response rating (0 to 100 scale) ([15]; 500 g ai/ha Preemergence): 80; Plant response rating, Sedge, Umbrella (0 to 100 scale, 0 is no effect, 100 is complete control) [16]: 0; Plant response rating, Barnyardgrass (0 to 100 scale, 0 is no effect, 100 is complete control) [17]: 0; Plant response rating, Ducksalad (0 to 100 scale, 0 is no effect, 100 is complete control) [18]: 0; Plant response rating, Rice (0 to 100 scale, 0 is no effect, 100 is complete control) (rice (Oryza sativa)): 0
CON=C(c1ccccc1Cl)c1c(O)c(C)nn(C)c1=O (stereo in doubt) [Compound 29]	70	20	80	70	10	0	20	0	70	60	50	40	30	10	90	20	0	50	90	20	Wheat plant response rating (0 to 100 scale) [3, 19]: 20; Wheat plant response rating ([3]; Postemergence, 125 g ai/ha): 20; Ryegrass, Italian plant response rating ([8]; Postemergence): 30; Barnyardgrass plant response rating (0 to 100 scale) ([10]; 125 g ai/ha Preemergence): 30; Ragweed plant response rating (0 to 100 scale) ([11]; 125 g ai/ha Preemergence): 30; Pigweed plant response rating (0 to 100 scale) ([12]; 125 g ai/ha Preemergence): 0; Kochia plant response rating (0 to 100 scale) (kochia (Kochia scoparia) [13]; 125 g ai/ha Preemergence): 0; Kochia plant response rating (0 to 100 scale) (kochia (Kochia scoparia) [13]; 500 g ai/ha Preemergence): 10; Ryegrass, Italian plant response rating (0 to 100 scale) ([14]; 125 g ai/ha Preemergence): 20; Ryegrass, Italian plant response rating (0 to 100 scale) ([14]; 500 g ai/ha Preemergence): 70; Foxtail, Green plant response rating (0 to 100 scale) ([15]; 125 g ai/ha Preemergence): 30; Foxtail, Green plant response rating (0 to 100 scale) ([15]; 500 g ai/ha Preemergence): 50; Plant response rating, Sedge, Umbrella (0 to 100 scale, 0 is no effect, 100 is complete control) [16]: 0; Plant response rating, Barnyardgrass (0 to 100 scale, 0 is no effect, 100 is complete control) [17]: 0; Plant response rating, Ducksalad (0 to 100 scale, 0 is no effect, 100 is complete control) [18]: 0; Plant response rating, Rice (0 to 100 scale, 0 is no effect, 100 is complete control) (rice (Oryza sativa)): 0
CCn1nc(C)c(O)c(/C(=N/OC)c2cccc(C)c2)c1=O [Compound 1]	20	0	30	0	0	0	10	0	0	0	0	0	0	0	20	10	0	0	10	0	Wheat plant response rating (0 to 100 scale) [3, 19]: 0; Wheat plant response rating ([3]; Postemergence, 125 g ai/ha): 0; Ryegrass, Italian plant response rating ([8]; Postemergence): 0; Barnyardgrass plant response rating (0 to 100 scale) ([10]; 125 g ai/ha Preemergence): 0; Ragweed plant response rating (0 to 100 scale) ([11]; 125 g ai/ha Preemergence): 0; Pigweed plant response rating (0 to 100 scale) ([12]; 125 g ai/ha Preemergence): 0; Kochia plant response rating (0 to 100 scale) (kochia (Kochia scoparia) [13]; 125 g ai/ha Preemergence): 0; Kochia plant response rating (0 to 100 scale) (kochia (Kochia scoparia) [13]; 500 g ai/ha Preemergence): 0; Ryegrass, Italian plant response rating (0 to 100 scale) ([14]; 125 g ai/ha Preemergence): 0; Ryegrass, Italian plant response rating (0 to 100 scale) ([14]; 500 g ai/ha Preemergence): 40; Foxtail, Green plant response rating (0 to 100 scale) ([15]; 125 g ai/ha Preemergence): 10; Foxtail, Green plant response rating (0 to 100 scale) ([15]; 500 g ai/ha Preemergence): 30; Plant response rating, Sedge, Umbrella (0 to 100 scale, 0 is no effect, 100 is complete control) [16]: 0; Plant response rating, Barnyardgrass (0 to 100 scale, 0 is no effect, 100 is complete control) [17]: 0; Plant response rating, Ducksalad (0 to 100 scale, 0 is no effect, 100 is complete control) [18]: 0; Plant response rating, Rice (0 to 100 scale, 0 is no effect, 100 is complete control) (rice (Oryza sativa)): 0
